Test results taken from EP0069521A2, “Pyridinyl and imidazolyl derivatives of benzofurans and benzothiophenes” (THE UPJOHN COMPANY, priority 1981, dated 1983).

Biological target: T1, TXA2 synthetase (Homo sapiens, UniProt P24557)
T1 construct: generated by mixing prostaglandin H2 (PGHz) with human platelet microsomes (HPM); from tissue; host or cells: human platelet microsomes
T1 sequence (P24557 1-533): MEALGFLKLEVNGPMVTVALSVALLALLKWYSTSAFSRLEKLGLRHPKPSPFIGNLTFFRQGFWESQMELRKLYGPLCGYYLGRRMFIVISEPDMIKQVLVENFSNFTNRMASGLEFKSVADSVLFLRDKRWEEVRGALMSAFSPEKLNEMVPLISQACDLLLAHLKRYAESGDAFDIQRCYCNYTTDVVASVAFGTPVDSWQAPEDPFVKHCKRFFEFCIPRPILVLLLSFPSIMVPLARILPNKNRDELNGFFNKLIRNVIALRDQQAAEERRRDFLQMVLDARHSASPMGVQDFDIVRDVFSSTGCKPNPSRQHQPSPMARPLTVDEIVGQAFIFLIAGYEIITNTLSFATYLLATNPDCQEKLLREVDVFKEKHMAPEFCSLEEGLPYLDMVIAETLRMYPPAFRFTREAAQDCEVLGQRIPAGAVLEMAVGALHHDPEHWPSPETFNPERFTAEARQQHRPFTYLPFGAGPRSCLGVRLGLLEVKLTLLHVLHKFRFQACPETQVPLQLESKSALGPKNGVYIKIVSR
Assay: TXA2 inhibition test: TXA2 generated by mixing PGH2 with human platelet microsomes, response of superfused rabbit aortic strips
Assay type: biochemical
Settings: inhibiting TXA2 formation; test compound added to human platelet microsomes 5 minutes before mixing with PGH2; rabbit aorta response
Procedure: The compounds of the present invention were tested for TXA2 inhibition as follows: • Rabbit aortic strips were superfused in series with Krebs solution. Thromboxane Az (TXA2) was generated by mixing prostaglandin H2 (PGHz) with human platelet microsomes (HPM).
Potential inhibitors were tested by comparing the response of the rabbit aorta to the amount of TXA2 produced by mixing PGH2 and HPM without the test compound in the reaction medium and then the amount of TXA2 produced when the test compound was added to the HPM 5 minutes before the HPM was mixed with PGH2. […] For a discussion of TXA2 synthetase inhibition testing see, e.g., R. Gorman, supra.

For `O=C([O-])c1cc2cc(Cc3cccnc3)ccc2o1.[Na+]` [Example A-2, Sodium 5-(3'-pyridinylmethyl)benzofuran-2-carboxylate], the “approximate ED50” value was about 0.01 µg/mL.
